“And” between values parts separate entries of the source, which are not always exact repeats. Equal entries are not always repeated.
What was measured:
CYP1A [1] = test: EROD assay, liver microsomes of NVP-treated rats (AhR marker); type: in vivo, rat; settings: male rats
Experimental: (§1) The alkoxyresorufin dealkylase (AROD) assays were based on the method by Burke et al. ([1994]).
(§2) The frozen livers and lungs of the NVP-treated male Wistar rats were thawed and washed with isotonic (0.9%) NaCl solution. The tissues were ice-cooled homogenized (1 g tissue: 3 mL 0.25 M saccharose in 1 mM disodium EDTA, pH 7.4) and centrifuged (9000 g, 15 min, 4 °C). The supernatant fraction was centrifuged (100 000 g, 60 min, 4 °C). The resulting supernatant fraction was used for the palmitoyl-CoA-oxidase assay described further down. The pellet was taken up in 150 mM aqueous KCl solution, recentrifuged (100 000 g, 60 min, 4 °C) and the pellet taken up in 1 mL/g liver or 0.5 mL/g lung resuspension buffer (1 mM GSH, 1 mM disodium EDTA, 4 mM MgCl2, 0.1 M KH2PO4, pH 7.5 and 4% glycerol). Aliquots were stored at − 80 °C.
(§3) For determination of the enzyme activities in triplicates, 85 µL master mix (100 mM TrisHCl pH 7.5, 2 mM 5’AMP, 5 mM G-6-P, 10 U G-6-P-DH, 10 mM Dicumarol, 10 mM MgCl2, either 2 µM EROD or 10 µM PROD or 5 µM BROD) was added to 10 µL microsomal fraction (1 mg protein/mL). The reaction was started by the addition of 5 µL 2 mM NADPH (dissolved in 100 mM TrisHCl pH 7.5) followed by incubation at 37 °C for 16 min. The activity was determined by measuring the increase of the fluorescence (excitation at 550 nm, emission at 585 nm) due to resorufin formation compared with resorufin standards, which had been prepared by dissolving tenfold concentrated solutions in DMSO, which were then diluted tenfold in 100 mM TrisHCl pH 7.5.

Klebsiella pneumoniae = settings: ref MAK [1994]; cited from earlier work
(liver) DNA = system: (liver) DNA; design: method as in Inveresk Research International (IRI) [1986]; settings: male CD rats, i.p. 14C-NVP 150 and 300 mg/kg; ref Inveresk Research International (IRI) [1986]; cited from earlier work
CYP2B = test: PROD inhibition control in Aroclor 1254-induced rat liver microsomes; type: biochemical; settings: for PROD enzyme activity: 0 µM control 78.9 ± 3.2
Experimental: as §3
As a method control the described AROD assay was performed with microsomal fractions derived from liver and lung of male Wistar rats which had been treated i.p. for 5 days with aroclor 1254 (500 mg/kg bw). These control assays were performed in presence of 1 μM, 10 μM or 100 μM NVP, respectively, in order to check for potential interactions of NVP with the substrate turnover in the AROD assay.

rat liver = test: Glutathione recycling assay (tGSH, GSSG) in liver; type: in vivo; settings: for GSH (GSH recycling assay), individual animal / GSSG, individual animal / tGSH, individual animal / GSH (GSH recycling assay), group (mean ± SD) / GSSG, group (mean ± SD) / tGSH, group (mean ± SD): rat liver; for GSH (GSH recycling assay), group (mean ± SD) / GSSG, group (mean ± SD) / tGSH, group (mean ± SD): n = 6;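 as to GSSG, group (mean ± SD): Nanomoles per gram liver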;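 as to GSSG, individual animal: Nanomoles per gram liver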;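 as to Mean GSSG concentration: Nanomoles per gram liver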
Experimental: Glutathione recycling assay was adapted from the method described by Gallagher ([1994]) and performed using the 14 000 g supernatant fraction derived from the 5-SSA-treated liver homogenate of the NVP-exposed male Wistar rats as described above under “Non-protein-bound sulfhydryl groups”. The obtained samples were diluted fivefold with the 5% 5-SSA solution.
For determination of total glutathione (tGSH, i.e. GSH + GSSG) a GSH control (640 µM in 5% 5-SSA, diluted by a factor of 4 for application in the assay) and a tGSH control (200 µM in 5% 5-SSA, containing 10% GSSG) were treated the same way as the samples. To 5 µL of sample, controls as well as GSH standards (dissolved in 5% 5-SSA solution) 190 µL tGSH master mix, consisting of phosphate/EDTA buffer (125 mM KH2PO4/7 mM EDTA, pH 7.5), 0.4 mM NADPH and 0.5 U/L glutathione reductase suspension, were added. Determinations were performed in triplicates. The reaction was started by adding 5 µL of 24 mM DTNB in methanol. The absorption at λ = 412 nm was measured every 60 s for 5 min.
For determination of GSSG a control (20 μM GSSG, 160 μM GSH) was treated the same way as the samples. 125 µL sample, control, GSSG standards and blank, respectively, were combined with 5 µL 2-vinylpyridine (Sigma Aldrich, Steinheim, Germany). 20 µL of […] triethylamine was pipetted to the upper rim of the vessel such that after mixing the pH value was between 7 and 7.5 and reaction was allowed to proceed in the thermomixer at 600 rpm for 1 h at 26 °C in order to derivatize the GSH in the sample. The determination of GSSG was then performed in analogy to the determination of tGSH described above. The absorption at λ = 412 nm was measured every 60 s for 10 min.

estrogen receptor α = system: estrogen receptor α; design: method as in ToxCast (comptox.epa.gov dashboard); settings: ref ToxCast (comptox.epa.gov dashboard); cited from earlier work
Wistar rats = test: Clinical observations and body weight during 5-day inhalation
Experimental: Eight-week-old male and female Wistar Crl:WI (Han) rats were obtained from Charles River Laboratories, Sulzfeld, Germany and acclimatized for 10 days. They were kept at 20–24 °C at a humidity of 30–70% in groups of six animals in polysulfone cages (Tecniplast) with free access to water and feed (10 mm pellets, Provimi Kliba, Kaiseraugst, Switzerland).
The animals were acclimatized to the whole-body exposure chambers for 2 days using the inhalation stream without the test substance. […] Animals were weighed before the 2-day acclimatation to the exposure chambers and subsequently before and after the exposure to the test substance. Animals were killed in the morning after the last exposure period to perform the examinations described further down.
For the inhalation experiments, two animals per cage (DK III, Becker & CO., Castrop-Rauxel, Germany) were kept in the glass–steel inhalation chambers (volume approximately 200 L) without access to feed and water. For each test dose a constant amount of NVP was pumped by continuous infusion pumps PHD Ultra (Havard Apparatus, Holliston) to an evaporator (Glasverdampfer BASF, Ludwigshafen, Germany; Thermostat Julabo Labortechnik, Seelbach, Germany). The thus generated vapor was combined with air and introduced into the exposure chamber.

CYP1A [2] = test: EROD assay, lung microsomes of NVP-treated rats; type: in vivo, rat; settings: after NVP treatment; below the LOD
Experimental: as §1
as §2, with “Aliquots were stored at − 80 °C.” left out
as §3, with “The reaction was started by the addition of 5 µL 2 mM NADPH (dissolved in 100 mM TrisHCl pH 7.5) followed by incubation at 37 °C for 16 min.” left out

[3] = system: p53 transcription factor activity; design: method as in ToxCast (comptox.epa.gov dashboard); settings: ref ToxCast (comptox.epa.gov dashboard); read-out: AC50 of the p53 transcription factor activity modulation; cited from earlier work
CYP 2B/3A = test: BROD assay, liver microsomes (PXR marker); type: in vivo, rat; settings: male rats
Experimental: as §1, §2, §3

[4] = 5 ppm NVP inhalation, animals 7-12
[5] = 10 ppm NVP inhalation, animals 13-18
[6] = 20 ppm NVP inhalation, animals 19-24

In the case of `C=CN1CCCC1=O` [NVP, N-vinylpyrrolidone], the “Liver microsomal EROD activity” value (CYP1A [1]; 5 ppm) is reported as 20.5 ± 3.6 pmol/min/mg protein, the “Liver microsomal EROD activity” value (CYP1A [1]; 10 ppm) is reported as 22.0 ± 5.8 pmol/min/mg protein and the “Liver microsomal EROD activity” value (CYP1A [1]; 20 ppm) is reported as 16.9 ± 6.4 pmol/min/mg protein. For the same compound, the “Klebsiella pneumoniae fluctuation (point mutation) test result” value (Klebsiella pneumoniae) was “negative”, the “Binding of NVP or its metabolites to (liver) DNA” value ((liver) DNA) was “no binding” and the PROD enzyme activity (CYP2B; 1 µM NVP) was 88.6 ± 3.3 pmol/min/mg protein. For the same compound, the PROD enzyme activity (CYP2B; 10 µM NVP) was 92.1 ± 6.0 pmol/min/mg protein, the PROD enzyme activity (CYP2B; 100 µM NVP) was 94.6 ± 2.3 pmol/min/mg protein and the “Inhibition of PROD activity” value (CYP2B; 1, 10 or 100 µM NVP) was “does not lead to inhibition”. The GSH/GSSG ratio (rat liver; 5 ppm) was 42.2 ± 18.4, the “Mean GSSG concentration” value (rat liver; 5 ppm) was 116 ± 32 nmol/g liver and the “Proportion of reduced glutathione GSH within total glutathione tGSH” value (rat liver; 5 ppm) was 95.0% ± 1.4%. For the same compound, the GSH/GSSG ratio (rat liver; 10 ppm) was 31.2 ± 4.6, the “Mean GSSG concentration” value (rat liver; 10 ppm) was 135 ± 12 nmol/g liver and the “Proportion of reduced glutathione GSH within total glutathione tGSH” value (rat liver; 10 ppm) was 93.9% ± 0.8%. The GSH/GSSG ratio (rat liver; 20 ppm) was 30.0 ± 4.6, the “Mean GSSG concentration” value (rat liver; 20 ppm) was 136 ± 22 nmol/g liver and the “Proportion of reduced glutathione GSH within total glutathione tGSH” value (rat liver; 20 ppm) was 93.6% ± 0.9%. For the same compound, the “GSH concentration (GSH recycling assay), range” value (rat liver; NVP-exposed male rats, 5-20 ppm) was 3.06–5.48 µmol/g liver, the “GSH (GSH recycling assay), individual animal” value (rat liver; [4]) was 3.84 µmol/g liver and 5.48 µmol/g liver and 4.63 µmol/g liver and 3.93 µmol/g liver and 5.04 µmol/g liver and 4.00 µmol/g liver and the “GSSG, individual animal” value (rat liver; [4]) was 133 nmol/g liver and 71 nmol/g liver and 144 nmol/g liver and 114 nmol/g liver and 149 nmol/g liver and 87 nmol/g liver. The “tGSH, individual animal” value (rat liver; [4]) was 4.10 µmol/g liver and 5.63 µmol/g liver and 4.92 µmol/g liver and 4.16 µmol/g liver and 5.33 µmol/g liver and 4.17 µmol/g liver, the “GSH (GSH recycling assay), group (mean ± SD)” value (rat liver; 5 ppm NVP inhalation) was 4.49 ± 0.68 µmol/g liver and the “GSSG, group (mean ± SD)” value (rat liver; 5 ppm NVP inhalation) was 116 ± 32 nmol/g liver. The “tGSH, group (mean ± SD)” value (rat liver; 5 ppm NVP inhalation) was 4.72 ± 0.67 µmol/g liver, the “GSH (GSH recycling assay), individual animal” value (rat liver; [5]) was 3.44 µmol/g liver and 3.95 µmol/g liver and 4.70 µmol/g liver and 4.98 µmol/g liver and 4.41 µmol/g liver and 3.65 µmol/g liver and the “GSSG, individual animal” value (rat liver; [5]) was 132 nmol/g liver and 120 nmol/g liver and 151 nmol/g liver and 147 nmol/g liver and 126 nmol/g liver. For the same compound, the “tGSH, individual animal” value (rat liver; [5]) was 3.70 µmol/g liver and 4.21 µmol/g liver and 4.94 µmol/g liver and 5.28 µmol/g liver and 4.70 µmol/g liver and 3.91 µmol/g liver, the “GSH (GSH recycling assay), group (mean ± SD)” value (rat liver; 10 ppm NVP inhalation) was 4.19 ± 0.61 µmol/g liver and the “GSSG, group (mean ± SD)” value (rat liver; 10 ppm NVP inhalation) was 135 ± 12 nmol/g liver. For the same compound, the “tGSH, group (mean ± SD)” value (rat liver; 10 ppm NVP inhalation) was 4.46 ± 0.62 µmol/g liver, the “GSH (GSH recycling assay), individual animal” value (rat liver; [6]) was 4.45 µmol/g liver and 4.57 µmol/g liver and 3.06 µmol/g liver and 3.48 µmol/g liver and 4.31 µmol/g liver and 4.35 µmol/g liver and the “GSSG, individual animal” value (rat liver; [6]) was 151 nmol/g liver and 130 nmol/g liver and 106 nmol/g liver and 142 nmol/g liver and 121 nmol/g liver and 167 nmol/g liver. The “tGSH, individual animal” value (rat liver; [6]) was 4.75 µmol/g liver and 4.83 µmol/g liver and 3.27 µmol/g liver and 3.77 µmol/g liver and 4.55 µmol/g liver and 4.68 µmol/g liver, the “GSH (GSH recycling assay), group (mean ± SD)” value (rat liver; 20 ppm NVP inhalation) was 4.04 ± 0.62 µmol/g liver and the “GSSG, group (mean ± SD)” value (rat liver; 20 ppm NVP inhalation) was 136 ± 22 nmol/g liver. The “Effect on estrogen receptor α” value (estrogen receptor α) was “activates”, the “Mortality during the 5-day exposure” value (Wistar rats; 5, 10, 20 ppm inhalation, male and female) was “None of the exposed rats died” and the Body weight increase (Wistar rats; 10 ppm, males, p ≤ 0.05) was “reduced”. The “Slightly increased salivation, animals affected” value (Wistar rats; day 2 of exposure) was 1 of 48, the “Red nose effluent, animals affected” value (Wistar rats; days 4 or 5 of exposure) was 5 of 48 and the “EROD activity in lung microsomes” value (CYP1A [2]) was under 1.6 pmol/min/mg protein. For the same compound, the AC50 [3] was 40 nM, the “Liver microsomal BROD activity” value (CYP 2B/3A; 5 ppm) was 54.5 ± 11.3 pmol/min/mg protein and the “Liver microsomal BROD activity” value (CYP 2B/3A; 10 ppm) was 61.7 ± 16 pmol/min/mg protein. The “Liver microsomal BROD activity” value (CYP 2B/3A; 20 ppm) was 42.1 ± 16.5 pmol/min/mg protein.
